From patent US10538521B2, “Pyrimidine derivative having antimalarial activity” (CARNA BIOSCIENCES, INC., priority 2016, dated 2020)
Like-named read-outs stand apart in the source and are kept apart here.

Assays:
[1] = tested on: K1 strain, a drug resistant strain of Plasmodium falciparum; assay: In vitro antimalarial assay (p-LDH, Malstat), K1 strain; type: cell-based; conditions: read-out: Antimalarial activity (IC50 value), Strain K1
Summary of the method: (§1)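 IC50 derived from concentration-response of parasite lactate dehydrogenase signal (Malstat reagent, NBT/PES formazan at 655 nm) after freeze-thaw lysis. Infected erythrocytes (hematocrit 2%, parasitaemia 0.5 or 1%) exposed 72 h to 12.5–0.0001 μM final compound under 3% O2-4% CO2-93% N2, FCR3 and K1 alike.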

[2] = tested on: FCR3 strain, a drug sensitive strain of Plasmodium falciparum; assay: In vitro antimalarial assay (p-LDH, Malstat), FCR3 strain; type: cell-based; conditions: read-out: Antimalarial activity (IC50 value), Strain FCR3
Summary of the method: as §1

[3] = P. falciparum K1 (drug resistant), 72 h culture, p-LDH readout
[4] = P. falciparum FCR3 (drug sensitive), 72 h culture, p-LDH readout

| Compound | IC50 [1, 3] | IC50 [2, 4] | IC50 ([1]; K1, 72 h) | IC50 ([2]; FCR3, 72 h) |
| --- | --- | --- | --- | --- |
| CC(C)(C)OCCOc1cccc(Nc2nc(Nc3ccn4ccnc4c3)cc(N3CCCC3)n2)n1 [Example 156, N2-{6-[2-(tert-butoxy)ethoxy]pyridin-2-yl}-N4-(imidazo[1,2-a]pyridin-7-yl)-6-(pyrrolidin-1-yl)pyrimidine-2,4-diamine] | 100 to 1000 nM | < 100 nM | – | – |
| OCCOc1cccc(Nc2nc(Nc3ccn4ccnc4c3)cc(N3CCCC3)n2)n1 [Example 157, 2-[(6-{[4-(imidazo[1,2-a]pyridin-7-ylamino)-6-(pyrrolidin-1-yl)pyrimidin-2-yl]amino}pyridin-2-yl)oxy]ethanol] | < 100 nM | < 100 nM | – | – |
| CC(C)COc1cccc(Nc2nc(Nc3ccn4ccnc4c3)cc(N3CCCC3)n2)n1 [Example 158, N4-(imidazo[1,2-a]pyridin-7-yl)-N2-(6-isobutoxypyridin-2-yl)-6-(pyrrolidin-1-yl)pyrimidine-2,4-diamine] | 100 to 1000 nM | < 100 nM | – | – |
| COCCc1cccc(Nc2nc(Nc3ccn4ccnc4c3)cc(N3CCCC3)n2)n1 [Example 159, N4-(imidazo[1,2-a]pyridin-7-yl)-N2-[6-(2-methoxyethyl)pyridin-2-yl]-6-(pyrrolidin-1-yl)pyrimidine-2,4-diamine] | < 100 nM | < 100 nM | – | – |
| CCOCCc1cccc(Nc2nc(Nc3ccn4ccnc4c3)cc(N3CCCC3)n2)n1 [Example 160, N2-[6-(2-ethoxyethyl)pyridin-2-yl]-N4-(imidazo[1,2-a]pyridin-7-yl)-6-(pyrrolidin-1-yl) pyrimidine-2,4-diamine] | < 100 nM | < 100 nM | – | – |
| CC(C)(C)Cc1cccc(Nc2nc(Nc3ccn4ccnc4c3)cc(N3CCCC3)n2)n1 [Example 162, N4-(imidazo[1,2-a]pyridin-7-yl)-N2-(6-neopentylpyridin-2-yl)-6-(pyrrolidin-1-yl)pyrimidine-2,4-diamine] | 100 to 1000 nM | < 100 nM | – | – |
| c1cc(CCN2CCCC2)nc(Nc2nc(Nc3ccn4ccnc4c3)cc(N3CCCC3)n2)c1 [Example 163, N4-(imidazo[1,2-a]pyridin-7-yl)-6-(pyrrolidin-1-yl)-N2-{6-[2-(pyrrolidin-1-yl)ethyl]pyridin-2-yl}pyrimidine-2,4-diamine triformate] | – | – | 100 to 1000 nM | < 100 nM |
| CCCOCc1cccc(Nc2nc(Nc3ccn4ccnc4c3)cc(N3CCCC3)n2)n1 [Example 164, N4-(imidazo[1,2-a]pyridin-7-yl)-N2-[6-(propoxymethyl)pyridin-2-yl]-6-(pyrrolidin-1-yl) pyrimidine-2,4-diamine] | 1000 to 10000 nM | 100 to 1000 nM | – | – |
| Cc1cc(C)nc(Nc2nc(Nc3ccn4ccnc4c3)cc(N3CCC3)n2)c1 [Example 166, 6-(azetidin-1-yl)-N2-(4,6-dimethylpyridin-2-yl)-N4-(imidazo [1,2-a]pyridin-7-yl)pyrimidine-2,4-diamine] | < 100 nM | < 100 nM | – | – |
| CCCCc1cccc(Nc2nc(Nc3ccn4ccnc4c3)cc(N3CCC3)n2)n1 [Example 167, 6-(azetidin-1-yl)-N2-(6-butylpyridin-2-yl)-N4-(imidazo[1,2-a]pyridin-7-yl)pyrimidine-2,4-diamine] | 100 to 1000 nM | < 100 nM | – | – |
| CCCCc1cccc(Nc2nc(Nc3ccn4ccnc4c3)cc(N3CCC(C)(C)C3)n2)n1 [Example 168, N2-(6-butylpyridin-2-yl)-6-(3,3-dimethylpyrrolidin-1-yl)-N4-(imidazo[l,2-a]pyridin-7-yl) pyrimidine-2,4-diamine] | 100 to 1000 nM | < 100 nM | – | – |
| CCCCc1cccc(Nc2nc(Nc3ccn4ccnc4c3)cc(N3CCC4(CCOCC4)C3)n2)n1 [Example 169, N2-(6-butylpyridin-2-yl)-N4-(imidazo[1,2-a]pyridin-7-yl)-6-(8-oxa-2-azaspiro[4.5]decan-2-yl) pyrimidine-2,4-diamine] | < 100 nM | < 100 nM | – | – |
| CCOCc1cccc(Nc2nc(Nc3ccn4ccnc4c3)cc(N3CCCC3)n2)n1 [Example 171, N2-[6-(ethoxymethyl)pyridin-2-yl]-N4-(imidazo[1,2-a]pyridin-7-yl)-6-(pyrrolidin-1-yl) pyrimidine-2,4-diamine] | 100 to 1000 nM | 100 to 1000 nM | – | – |
| CN(C)CCc1cccc(Nc2nc(Nc3ccn4ccnc4c3)cc(N3CCCC3)n2)n1 [Example 172, N2-{6-[2-(dimethylamino)ethyl]pyridin-2-yl}-N4-(imidazo[1,2-a]pyridin-7-yl)-6-(pyrrolidin-1-yl)pyrimidine-2,4-diamine] | 100 to 1000 nM | < 100 nM | – | – |
| CCCCc1cccc(Nc2nc(Nc3ccn4ccnc4c3)cc(N3CCC4(CCCC4)C3)n2)n1 [Example 173, N2-(6-butylpyridin-2-yl)-N4-(imidazo[1,2-a]pyridin-7-yl)-6-(2-azaspiro[4.4]nonan-2-yl) pyrimidine-2,4-diamine] | 100 to 1000 nM | 100 to 1000 nM | – | – |
| Cc1cc(C)nc(Nc2nc(Nc3ccn4ccnc4c3)cc(N3CCC4(CCOCC4)C3)n2)c1 [Example 175, N2-(4,6-dimethylpyridin-2-yl)-N4-(imidazo[1,2-a]pyridin-7-yl)-6-(8-oxa-2-azaspiro[4.5]decan-2-yl)pyrimidine-2,4-diamine] | < 100 nM | < 100 nM | – | – |
| Cc1cc(C)nc(Nc2nc(Nc3ccn4ccnc4c3)cc(N3C[C@H]4CCC[C@H]4C3)n2)c1 [Example 176, N2-(4,6-dimethylpyridin-2-yl)-6-[(3aR,6aS)-hexahydrocyclopenta [c]pyrrol-2(1H)-yl]-N4-(imidazo[1,2-a]pyridin-7-yl) pyrimidine-2,4-diamine] | < 100 nM | < 100 nM | – | – |
| Cc1cc(C)nc(Nc2nc(Nc3ccn4ccnc4c3)cc(N3CC(C)(C)C3)n2)c1 [Example 177, 6-(3,3-dimethylazetidin-1-yl)-N2-(4,6-dimethylpyridin-2-yl)-N4-(imidazo[1,2-a]pyridin-7-yl)pyrimidine-2,4-diamine] | < 100 nM | < 100 nM | – | – |
| Cc1cc(C)nc(Nc2nc(Nc3ccn4ccnc4c3)cc(N3CC4(COC4)C3)n2)c1 [Example 178, N2-(4,6-dimethylpyridin-2-yl)-N4-(imidazo[1,2-a]pyridin-7-yl)-6-(2-oxa-6-azaspiro[3.3]heptan-6-yl)pyrimidine-2,4-diamine] | < 100 nM | < 100 nM | – | – |
| CCCCc1cccc(Nc2nc(Nc3ccn4ccnc4c3)cc(N3C[C@H]4CCC[C@H]4C3)n2)n1 [Example 179, N2-(6-butylpyridin-2-yl)-6-((3aR,6aS)-hexahydrocyclopenta[c]pyrrol-2(1H)-yl)-N4-(imidazo [1,2-a]pyridin-7-yl)pyrimidine-2,4-diamine] | 100 to 1000 nM | 100 to 1000 nM | – | – |
| CCCCc1cccc(Nc2nc(Nc3ccn4ccnc4c3)cc(N3CC(C)(C)C3)n2)n1 [Example 180, N2-(6-butylpyridin-2-yl)-6-(3,3-dimethylazetidin-1-yl)-N4-(imidazo[1,2-a]pyridin-7-yl) pyrimidine-2,4-diamine] | < 100 nM | < 100 nM | – | – |
| CCCCc1cccc(Nc2nc(Nc3ccn4ccnc4c3)cc(N3CC4(COC4)C3)n2)n1 [Example 181, N2-(6-butylpyridin-2-yl)-N4-(imidazo[1,2-a]pyridin-7-yl)-6-(2-oxa-6-azaspiro[3.3]heptan-6-yl)pyrimidine-2,4-diamine] | < 100 nM | 100 to 1000 nM | – | – |
| Cc1cc(C)nc(Nc2nc(Nc3ccn4ccnc4c3)cc(N3CCC(C)(C)CC3)n2)c1 [Example 182, 6-(4,4-dimethylpiperidin-1-yl)-N2-(4,6-dimethylpyridin-2-yl)-N4-(imidazo[1,2-a]pyridine-7-yl)pyrimidine-2,4-diamine] | 100 to 1000 nM | 100 to 1000 nM | – | – |
| Cc1cc(C)nc(Nc2nc(Nc3ccn4ccnc4c3)cc(N3CCC(C)CC3)n2)c1 [Example 183, N2-(4,6-dimethylpyridin-2-yl)-N4-(imidazo[1,2-a]pyridin-7-yl)-6-(4-methylpiperidin-1-yl) pyrimidine-2,4-diamine] | 100 to 1000 nM | 100 to 1000 nM | – | – |
| Cc1cc(C)nc(Nc2nc(Nc3ccn4ccnc4c3)cc(N3CCCC(C)C3)n2)c1 (stereo not shown) [Example 184, N2-(4,6-dimethylpyridin-2-yl)-N4-(imidazo[1,2-a]pyridin-7-yl)-6-(3-methylpiperidin-1-yl) pyrimidine-2,4-diamine] | 100 to 1000 nM | 100 to 1000 nM | – | – |
| Cc1cc(C)nc(Nc2nc(Nc3ccn4ccnc4c3)cc(N3CC[C@H](F)C3)n2)c1 [Example 185, (S)-N2-(4,6-dimethylpyridin-2-yl)-6-(3-fluoropyrrolidin-1-yl)-N4-(imidazo[1,2-a]pyridin-7-yl) pyrimidine-2,4-diamine] | < 100 nM | < 100 nM | – | – |
| Cc1cc(C)nc(Nc2nc(Nc3ccn4ccnc4c3)cc(N3CC[C@@H](F)C3)n2)c1 [Example 186, (R)-N2-(4,6-dimethylpyridin-2-yl)-6-(3-fluoropyrrolidin-1-yl)-N4-(imidazo[1,2-a]pyridin-7-yl) pyrimidine-2,4-diamine] | < 100 nM | < 100 nM | – | – |
| CCCCc1cc(C)cc(Nc2nc(Nc3ccn4ccnc4c3)cc(N3CCCCC3)n2)n1 [Example 187, N2-(6-butyl-4-methylpyridin-2-yl)-N4-(imidazo[1,2-a]pyridin-7-yl)-6-(piperidin-1-yl) pyrimidine-2,4-diamine] | 100 to 1000 nM | 100 to 1000 nM | – | – |
| Cc1cc(CC(C)C)nc(Nc2nc(Nc3ccn4ccnc4c3)cc(N3CCCCC3)n2)c1 [Example 188, N4-(imidazo[1,2-a]pyridin-7-yl)-N2-(6-isobutyl-4-methylpyridin-2-yl)-6-(piperidin-1-yl) pyrimidine-2,4-diamine] | < 100 nM | < 100 nM | – | – |
